For experiment [1], the target named is T1, CDK1 (Homo sapiens, UniProt P06493).
T1 construct: purchased New England Biolabs, Beverly, Mass; 6020; host or cells: insect cells
In words: CDK-1 kinase screening assay (33P-ATP FlashPlate). The following applies: human CDK1 with cyclin B; 10 μM ATP; 1 hr at 30° C. Type of experiment: biochemical.

Experiment [2] concerns the target T2, VEGF-R2 (Rattus norvegicus, UniProt O08775).
T2 construct: polyhistidine (N)
In words: VEGF-R2 kinase screening assay (33P-ATP FlashPlate).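 Note: Read-out is ³³P incorporation from ³³P-γ-ATP into biotinylated peptide substrate captured on streptavidin FlashPlate, counted by scintillation, 1% DMSO final, inhibition scaled between per-plate maximum and minimum signals.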 The note with it: rat VEGF-R2 kinase domain; 10 μM ATP; 1 hr at 30° C. Type of experiment: biochemical.

Experiment [3] deals with T3, HER2 (Homo sapiens, UniProt P04626).
T3 construct: GST (Glutathione-S-Transferase) (N); HIS6 (N); thrombin cleavage site (N); purchased Proqinase, Freiburg, Germany
T3 sequence (P04626 679-1255): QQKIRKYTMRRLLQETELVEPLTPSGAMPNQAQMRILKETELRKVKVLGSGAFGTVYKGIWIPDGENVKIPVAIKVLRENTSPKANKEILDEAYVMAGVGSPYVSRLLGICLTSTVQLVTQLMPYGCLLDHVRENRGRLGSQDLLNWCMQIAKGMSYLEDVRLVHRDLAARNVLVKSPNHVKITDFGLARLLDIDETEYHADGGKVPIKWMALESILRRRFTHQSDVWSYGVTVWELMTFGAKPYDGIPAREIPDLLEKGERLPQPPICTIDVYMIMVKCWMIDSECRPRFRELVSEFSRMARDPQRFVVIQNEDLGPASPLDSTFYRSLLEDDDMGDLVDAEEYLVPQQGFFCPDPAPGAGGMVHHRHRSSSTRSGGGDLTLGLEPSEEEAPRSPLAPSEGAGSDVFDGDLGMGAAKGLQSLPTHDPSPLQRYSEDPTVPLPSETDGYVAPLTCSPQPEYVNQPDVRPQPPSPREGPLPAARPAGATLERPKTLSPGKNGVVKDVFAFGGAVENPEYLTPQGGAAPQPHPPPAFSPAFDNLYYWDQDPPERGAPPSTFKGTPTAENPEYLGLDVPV
In words: HER2 kinase screening assay (33P-ATP FlashPlate).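 Note: Biotin-poly(GT) 4:1 peptide captured on streptavidin FlashPlate, 33P transfer from γ-ATP read by scintillation counting, lower incorporation means inhibition, 1% DMSO final, 100 µL reaction.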 It counts as biochemical. The note with it: GST-HIS6 HER-2 aa 679 to 1255; 10 μM ATP; 1 hr at 30° C.

Experiment [4] concerns the target T4, Aurora-A (Mus musculus, UniProt P97477).
T4 construct: polyhistidine (N)
T4 sequence (P97477 1-395): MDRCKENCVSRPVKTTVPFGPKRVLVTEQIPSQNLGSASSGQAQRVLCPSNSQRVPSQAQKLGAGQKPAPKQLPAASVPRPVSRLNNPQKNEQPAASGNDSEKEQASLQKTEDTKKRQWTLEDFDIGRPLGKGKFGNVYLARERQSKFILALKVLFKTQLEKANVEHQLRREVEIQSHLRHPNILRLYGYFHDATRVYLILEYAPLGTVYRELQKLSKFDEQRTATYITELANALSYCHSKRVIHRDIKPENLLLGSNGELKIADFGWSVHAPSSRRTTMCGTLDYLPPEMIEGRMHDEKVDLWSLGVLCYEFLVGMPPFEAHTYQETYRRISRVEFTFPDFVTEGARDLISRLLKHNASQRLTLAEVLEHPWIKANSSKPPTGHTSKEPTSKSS
In words: Aurora-A kinase screening assay (33P-ATP FlashPlate).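 Note: His-tagged mouse Aurora-A phosphorylating a biotinylated peptide captured on streptavidin plates, read as 33P uptake by scintillation counting, 1% DMSO, inhibition scaled between per-plate maximum and minimum signals.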 The following applies: 10 μM ATP, 1 hr at 30° C. It counts as biochemical.

Experiment [5] deals with T5, c-Src kinase (Homo sapiens, UniProt P12931).
T5 construct: purchased Upstate Biotechnology, Lake Placid, N.Y
T5 sequence (P12931 whole entry): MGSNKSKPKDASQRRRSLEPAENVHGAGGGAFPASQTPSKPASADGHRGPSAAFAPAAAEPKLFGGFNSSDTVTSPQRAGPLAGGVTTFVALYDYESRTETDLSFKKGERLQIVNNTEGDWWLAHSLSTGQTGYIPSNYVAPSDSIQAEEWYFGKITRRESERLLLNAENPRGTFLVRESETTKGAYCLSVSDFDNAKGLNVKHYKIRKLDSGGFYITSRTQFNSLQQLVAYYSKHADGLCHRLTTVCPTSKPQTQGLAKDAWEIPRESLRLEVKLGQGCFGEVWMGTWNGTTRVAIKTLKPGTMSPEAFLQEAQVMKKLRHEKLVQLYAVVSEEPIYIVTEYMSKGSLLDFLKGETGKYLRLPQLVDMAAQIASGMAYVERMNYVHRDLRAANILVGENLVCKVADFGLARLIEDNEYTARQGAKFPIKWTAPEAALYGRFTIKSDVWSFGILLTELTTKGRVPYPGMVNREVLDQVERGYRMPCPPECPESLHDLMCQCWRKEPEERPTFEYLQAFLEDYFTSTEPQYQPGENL
In words: c-Src Kinase Assay. It counts as biochemical. The note with it: 5 μM ATP. How it is done:
A mixture of a 10× kinase buffer (80 mM MOPS at pH 7.0, 2 mM EDTA and 100 mM Magnesium Chloride), ATP (5 μM final from a 10 mM stock), a Cdc2 peptide […] (100 μM final from a 2.5 mM stock), γ-^33P ATP (10 μCi/μL stock) and water (for a total of 20 μL/well) was added to each well of a Streptavidin Flashplate.
Test compound in 100% DMSO (0.5 μL) was added to the appropriate wells. Diluted c-Src kinase (human) (Accession Number SWISS-PROT P12931) (Upstate Biotechnology, Lake Placid, N.Y.) (diluted in a buffer consisting of 20 mM MOPS at pH 7.0, 1 mM EDTA, β-mercaptoethanol (0.1%), Brij-35 (0.01%), glycerol (5%), and 1 mg/mL bovine serum albumin) (2.5 μL) was added to the wells to initiate the reactions. The reaction plates were incubated at 30° C. for 40 min. The reaction was terminated by the addition of a 3% phosphoric acid solution (5 μL). The reaction product (10 μL) was spotted onto a P30 filtermat and washed for 5 minutes in phosphoric acid (75 mM). The wash sequence was repeated two more times, followed with one final wash in methanol. The plates were then dried, sealed and read on the TopCount scintillation counter after adding 30 μL scintillation fluid.
(§1) A maximum and minimum signal for the assay was determined on each plate. The percent inhibition of a test compound was calculated according to the formula: […]
For a series of test concentrations, the IC50 was derived by graphing percent inhibition against the log of the concentrations tested for a given compound with results shown in Table 2
(§2) For compounds with multiple values, each value represents a separate assay result.

Experiment [6] concerns the target T6, Lyn kinase (Homo sapiens, UniProt P07948).
T6 construct: purchased Upstate Biotechnology, Lake Placid, N.Y
Briefly: Lyn Kinase Assay. The following applies: 5 μM ATP. It counts as biochemical. How it is done: Test compound in 100% DMSO (0.5 μL) was added to the appropriate wells. Diluted Lyn kinase (human) (Accession Number EMBL M16038) (Upstate Biotechnology, Lake Placid, N.Y.) (diluted in a buffer consisting of 50 mM Tris at pH 7.5, 0.1 mM EGTA, Sodium Vanadate (0.1 mM), β-mercaptoethanol (0.1%) and 1 mg/mL bovine serum albumin) (2.5 μL) was added to the wells to initiate the reactions.
The reaction plates were incubated at 30° C. for 40 min. The reaction was terminated by the addition of a 3% phosphoric acid solution (5 μL). The reaction product (10 μL) was spotted onto a P30 filtermat and washed for 5 minutes in phosphoric acid (75 mM). The wash sequence was repeated two more times, followed with one final wash in methanol. The plates were then dried, sealed and read on the TopCount scintillation counter after adding 30 μL scintillation fluid.
as §1
For a series of test concentrations, the IC50 was derived by graphing percent inhibition against the log of the concentrations tested for a given compound with results shown in Table 3
as §2

The test system of experiment [7] is HeLa cervical adenocarcinoma. Briefly: Cell Proliferation Inhibition Assay (14C-thymidine incorporation), HeLa.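 Note: test compound in DMSO added to cells seeded in scintillating 96-well plates, DMSO-only wells as control, uptake of methyl 14C-thymidine into new DNA counted.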 Type of experiment: cell-based. The note with it: Homo sapiens, HeLa cells. For orientation: Dividing cells build labelled thymidine or BrdU into new DNA.
For experiment [8], the system named is A375 malignant melanoma. In words: Cell Proliferation Inhibition Assay (14C-thymidine incorporation), A375.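 Note: proliferation measured by radiolabelled thymidine uptake into new DNA, counted in scintillating 96-well plates, compound-treated wells compared with DMSO-only control wells.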 The note with it: Homo sapiens, A-375, A375 cells. Type of experiment: cell-based.
The subject of experiment [9] is HCT-116 colon carcinoma. Briefly: Cell Proliferation Inhibition Assay (14C-thymidine incorporation), HCT-116.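 Note: proliferation measured as methyl 14C-thymidine uptake into new DNA, counted in 96-well scintillating microplates, compared with DMSO-only control wells.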 Type of experiment: cell-based.
The mark [10] stands for this setting: Homo sapiens, HCT-116, HCT-116 cells.

pIC50: −log10 of the molar value. Several values for one entry are separate records, joined by “and”; a condition that tells them apart may be missing. Equal entries are not always repeated. Bounds are passed on as bounds.

T1 sequence (P06493 whole entry): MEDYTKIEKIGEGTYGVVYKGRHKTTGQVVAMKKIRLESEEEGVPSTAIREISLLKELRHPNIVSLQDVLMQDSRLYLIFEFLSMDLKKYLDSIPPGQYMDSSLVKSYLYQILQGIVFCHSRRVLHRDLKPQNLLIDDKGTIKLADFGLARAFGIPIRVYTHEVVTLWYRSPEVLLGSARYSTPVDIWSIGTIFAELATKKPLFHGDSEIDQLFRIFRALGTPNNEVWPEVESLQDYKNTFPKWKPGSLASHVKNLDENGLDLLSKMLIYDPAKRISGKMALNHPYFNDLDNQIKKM
T1 sequence (P14635 whole entry partner): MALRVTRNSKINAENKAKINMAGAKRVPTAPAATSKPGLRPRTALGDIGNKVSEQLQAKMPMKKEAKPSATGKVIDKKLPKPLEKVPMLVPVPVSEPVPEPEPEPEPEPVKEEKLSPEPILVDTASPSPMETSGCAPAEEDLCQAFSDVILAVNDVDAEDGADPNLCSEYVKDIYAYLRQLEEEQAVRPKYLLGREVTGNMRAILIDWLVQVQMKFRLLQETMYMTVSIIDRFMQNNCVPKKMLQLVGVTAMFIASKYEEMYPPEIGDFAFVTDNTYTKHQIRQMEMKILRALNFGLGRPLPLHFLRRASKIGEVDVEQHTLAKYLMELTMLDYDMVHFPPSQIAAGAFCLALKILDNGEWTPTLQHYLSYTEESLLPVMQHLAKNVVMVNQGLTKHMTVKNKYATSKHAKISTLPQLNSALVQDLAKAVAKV
T2 sequence (O08775 786-1343): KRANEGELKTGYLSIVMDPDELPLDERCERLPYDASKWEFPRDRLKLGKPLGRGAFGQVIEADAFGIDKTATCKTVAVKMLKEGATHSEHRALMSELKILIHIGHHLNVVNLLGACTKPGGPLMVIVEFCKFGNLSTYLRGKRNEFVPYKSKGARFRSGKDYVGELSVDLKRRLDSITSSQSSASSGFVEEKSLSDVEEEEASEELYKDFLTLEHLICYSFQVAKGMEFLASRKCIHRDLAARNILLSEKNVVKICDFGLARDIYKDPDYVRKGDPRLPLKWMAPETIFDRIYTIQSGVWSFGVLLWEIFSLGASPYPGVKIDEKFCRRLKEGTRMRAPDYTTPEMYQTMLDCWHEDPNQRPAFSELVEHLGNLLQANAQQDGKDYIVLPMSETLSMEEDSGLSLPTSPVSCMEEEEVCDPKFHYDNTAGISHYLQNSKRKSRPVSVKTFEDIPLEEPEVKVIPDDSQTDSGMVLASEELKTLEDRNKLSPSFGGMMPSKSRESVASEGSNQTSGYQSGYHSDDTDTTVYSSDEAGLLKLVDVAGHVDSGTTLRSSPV
T6 sequence (P07948 whole entry): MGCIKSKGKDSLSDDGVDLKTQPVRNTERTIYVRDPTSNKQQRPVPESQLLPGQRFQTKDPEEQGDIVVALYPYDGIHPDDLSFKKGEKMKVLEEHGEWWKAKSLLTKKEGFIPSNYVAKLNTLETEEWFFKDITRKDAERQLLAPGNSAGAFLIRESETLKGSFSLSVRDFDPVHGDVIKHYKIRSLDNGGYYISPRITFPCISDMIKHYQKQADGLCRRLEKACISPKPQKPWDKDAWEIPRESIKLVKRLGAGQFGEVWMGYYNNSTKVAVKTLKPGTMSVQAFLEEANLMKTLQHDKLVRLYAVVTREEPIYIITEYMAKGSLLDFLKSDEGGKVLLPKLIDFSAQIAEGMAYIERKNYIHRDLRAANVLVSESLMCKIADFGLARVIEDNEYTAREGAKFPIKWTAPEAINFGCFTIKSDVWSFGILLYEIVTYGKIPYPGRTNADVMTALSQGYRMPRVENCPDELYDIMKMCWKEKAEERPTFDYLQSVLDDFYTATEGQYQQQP

In general, pIC50 refers to −log10 of the IC50, conventionally taken in molar units. Read a low pIC50 as a high IC50. Turning to `COCc1cccc2[nH]c(-c3n[nH]c4ncc(-c5cncc(CN(C)C)c5)cc34)nc12` [Cpd 55, {5-[3-(4-methoxymethyl-1H-benzoimidazol-2-yl)-1H-pyrazolo[3,4-b]pyridin-5-yl]-pyridin-3-ylmethyl}-dimethyl-amine], the pIC50 in [1] is 6.91; in [2], 5.80; in experiment [3] it was below 4.00; in experiment [4] it was 5.43; in experiment [5], 6.85; in experiment [6], 6.24. For the same compound, the pIC50 was 5.91 in [7] (HeLa), 6.48 in experiment [8] and 6.73 in experiment [9] (setting [10]).
As to `c1ccc2c(-c3cnc4[nH]nc(-c5nc6cc(N7CCOCC7)ccc6[nH]5)c4c3)cncc2c1` [Cpd 51, 4-[3-(5-morpholin-4-yl-1H-benzoimidazol-2-yl)-1H-pyrazolo[3,4-b]pyridin-5-yl]-isoquinoline], the pIC50 in [1] is 8.07; in [2], 5.97; in experiment [3], below 4.00; in experiment [4], 7.38; in experiment [5], 8.55; in experiment [6], 8.30. Further, the pIC50 is 6.40 in [7] (HeLa), 6.53 in [8] and 6.42 in experiment [9] (setting [10]).
Consider `O=C(NC1CC1)c1cccc2[nH]c(-c3n[nH]c4ncc(-c5cncc6ccccc56)cc34)nc12` [Cpd 47, 2-(5-isoquinolin-4-yl-1H-pyrazolo[3,4-b]pyridin-3-yl)-1H-benzoimidazole-4-carboxylic acid cyclopropylamide], for which the pIC50 in experiment [1] was 8.80; in experiment [2] it was 6.83; in experiment [3], around 5.00; in experiment [4], 7.24; in experiment [5] it was 9.20; in [6], 8.64. Also, the pIC50 was 7.91 in experiment [7] (HeLa), 7.89 in experiment [8] and 7.50 in [9] (setting [10]).
`CNCc1cncc(-c2cnc3[nH]nc(-c4nc5cc(N6CCN(C)CC6)ccc5[nH]4)c3c2)c1` [Cpd 81, methyl-(5-{3-[5-(4-methyl-piperazin-1-yl)-1H-benzoimidazol-2-yl]-1H-pyrazolo[3,4-b]pyridin-5-yl}-pyridin-3-ylmethyl)-amine]: the pIC50 is 8.52 in experiment [1]; 7.45 in experiment [2]; 6.15 in experiment [3]; 6.76 in experiment [4]; 6.65 in [5]; 6.77 in [6]. Also, the pIC50 is 6.35 in experiment [7]; 6.11 in [8]; 6.22 in experiment [9] (Homo sapiens, HCT-116 cells).
As for `CN1CCN(c2ccc3[nH]c(-c4n[nH]c5ncc(-c6cncc7ccccc67)cc45)nc3c2)CC1` [Cpd 31, 4-{3-[5-(4-methyl-piperazin-1-yl)-1H-benzoimidazol-2-yl]-1H-pyrazolo[3,4-b]pyridin-5-yl}-isoquinoline], the negative-log IC50 (pIC50) in [1] is 7.87; in [3], 5.19; in experiment [5], 8.38; in experiment [6], 8.41; in experiment [7], 6.34; in experiment [8] it was 6.78. Also, the negative logarithm of the IC50 (pIC50) in [9] (Homo sapiens, HCT-116 cells) was 6.45.
On to `CC(C)NCc1cncc(-c2cnc3[nH]nc(-c4nc5cc(N6CCN(C)CC6)ccc5[nH]4)c3c2)c1` [Cpd 83, isopropyl-(5-{3-[5-(4-methyl-piperazin-1-yl)-1H-benzoimidazol-2-yl]-1H-pyrazolo[3,4-b]pyridin-5-yl}-pyridin-3-ylmethyl)-amine], for which the pIC50 in experiment [1] was 8.12; in experiment [2] it was 7.13; in [3] it was 5.83; in [4], 6.58; in experiment [5] it was 8.18; in [6], 8.62. For the same compound, the pIC50 in experiment [7] (HeLa) is 5.84; in [8], 5.97; in [9] (setting [10]), 5.82.
In the case of `COc1ccc2nc(-c3n[nH]c4ncc(-c5cccnc5)cc34)[nH]c2c1` [Cpd 90, 3-(6-methoxy-1H-benzoimidazol-2-yl)-5-pyridin-3-yl-1H-pyrazolo[3,4-b]pyridine], the negative-log IC50 (pIC50) was 8.56 in [1]; 6.50 in [2]; 6.55 in experiment [4]; 7.25 in experiment [5]; 7.16 in experiment [6]; 6.38 in [7] (HeLa). The pIC50 in experiment [8] is 6.43; in experiment [9] (setting [10]), 6.52.
Regarding `Fc1ccc2nc(-c3n[nH]c4ncc(-c5cccnc5)cc34)[nH]c2c1` [Cpd 92, 3-(6-fluoro-1H-benzoimidazol-2-yl)-5-pyridin-3-yl-1H-pyrazolo[3,4-b]pyridine], the pIC50 in experiment [1] is 8.18; in experiment [5], 7.01; in [6], below 4.00; in experiment [7] (HeLa) it was 6.16; in [8], 6.33; in [9] (setting [10]), 6.46.
Regarding `COCc1cccc2[nH]c(-c3n[nH]c4ncc(-c5cncc(CN6CCOCC6)c5)cc34)nc12` [Cpd 54, 3-(4-methoxymethyl-1H-benzoimidazol-2-yl)-5-(5-morpholin-4-ylmethyl-pyridin-3-yl)-1H-pyrazolo[3,4-b]pyridine], the negative logarithm of the IC50 (pIC50) was 6.75 and 6.46 in experiment [1]; 5.73 and 5.80 in experiment [2]; below 4.00 in experiment [3]; 5.49 and 5.33 in experiment [4]; 6.85 in [5]; 6.24 in experiment [6]. The pIC50 in [9] (HCT-116 cells) is 7.20; in [9] (setting [10]), 7.47.
With `CNCc1cncc(-c2cnc3[nH]nc(-c4nc5ccc(OC)cc5[nH]4)c3c2)c1` [Cpd 97, {5-[3-(6-methoxy-1H-benzoimidazol-2-yl)-1H-pyrazolo[3,4-b]pyridin-5-yl]-pyridin-3-ylmethyl}-methyl-amine], the negative logarithm of the IC50 (pIC50) was 9.05 in experiment [1]; 5.84 in experiment [3]; 7.78 in experiment [5]; 8.37 in experiment [6]; 7.21 in experiment [7]; 6.78 in experiment [8]. In [9] (Homo sapiens, HCT-116 cells), this compound showed a pIC50 of 7.21.

For the origin of these results see patent US7541367B2, “3-benzoimidazolyl-pyrazolopyridines useful in treating kinase disorders” (Janssen Pharmaceutica, N.V., priority 2005, dated 2009).
